The record followed here is patent publication US20240083857A1, “2-Methyl-Quinazolines” (Bayer Pharma Aktiengesellschaft, priority 2017, published 2024).

The IC50 is the point on the concentration scale where inhibition reaches its midpoint. As a reminder, the inhibition is the share of the control response that was lost under treatment.

Like-named read-outs stand apart in the source and are kept apart here. A value given as a limit tells only on which side of the number the result lay.

Test [1] concerns the target human SOS1 (nucleotide exchange of K-Ras^G12C) (Homo sapiens, UniProt Q07889). Description: Biochemical assay 2: K-Ras^G12C activation assay by hSOS1 at high GTP concentration (HTRF). As to conditions: for inhibition at 20 µM: read-out: Assay 2 (KRAS-Activation by SOS high GTP) activity expressed as % inhibition at 20 μM.
The target in test [2] is Epidermal Growth Factor Receptor (EGFR) (Homo sapiens (Human), UniProt P00533). Description: EGFR kinase assay (TR-FRET). Type of test: biochemical. The procedure, abridged:
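EGFR purified from A431 cells was preincubated with compound 15 min at 22° C in pH 7.0 Hepes buffer with MgCl2, MnCl2 and vanadate before reaction with a biotinylated peptide. After EDTA stop, phosphopeptide was detected by TR-FRET (anti-phosphotyrosine Tb-cryptate, streptavidin-XL665) as the 665/620 nm emission ratio.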

Where [3] appears, read: E-notation values, unit inferred, 50 μM GTP, read-out: Assay 2 (KRAS-Activation, high GTP) IC50.
Where [4] appears, read: E-notation values, unit inferred, read-out: EGFR-assay IC50.
[5] abbreviates: values given in μM, read-out: EGFR kinase inhibition IC50.

Epidermal Growth Factor Receptor (EGFR), sequence (P00533 25-1210): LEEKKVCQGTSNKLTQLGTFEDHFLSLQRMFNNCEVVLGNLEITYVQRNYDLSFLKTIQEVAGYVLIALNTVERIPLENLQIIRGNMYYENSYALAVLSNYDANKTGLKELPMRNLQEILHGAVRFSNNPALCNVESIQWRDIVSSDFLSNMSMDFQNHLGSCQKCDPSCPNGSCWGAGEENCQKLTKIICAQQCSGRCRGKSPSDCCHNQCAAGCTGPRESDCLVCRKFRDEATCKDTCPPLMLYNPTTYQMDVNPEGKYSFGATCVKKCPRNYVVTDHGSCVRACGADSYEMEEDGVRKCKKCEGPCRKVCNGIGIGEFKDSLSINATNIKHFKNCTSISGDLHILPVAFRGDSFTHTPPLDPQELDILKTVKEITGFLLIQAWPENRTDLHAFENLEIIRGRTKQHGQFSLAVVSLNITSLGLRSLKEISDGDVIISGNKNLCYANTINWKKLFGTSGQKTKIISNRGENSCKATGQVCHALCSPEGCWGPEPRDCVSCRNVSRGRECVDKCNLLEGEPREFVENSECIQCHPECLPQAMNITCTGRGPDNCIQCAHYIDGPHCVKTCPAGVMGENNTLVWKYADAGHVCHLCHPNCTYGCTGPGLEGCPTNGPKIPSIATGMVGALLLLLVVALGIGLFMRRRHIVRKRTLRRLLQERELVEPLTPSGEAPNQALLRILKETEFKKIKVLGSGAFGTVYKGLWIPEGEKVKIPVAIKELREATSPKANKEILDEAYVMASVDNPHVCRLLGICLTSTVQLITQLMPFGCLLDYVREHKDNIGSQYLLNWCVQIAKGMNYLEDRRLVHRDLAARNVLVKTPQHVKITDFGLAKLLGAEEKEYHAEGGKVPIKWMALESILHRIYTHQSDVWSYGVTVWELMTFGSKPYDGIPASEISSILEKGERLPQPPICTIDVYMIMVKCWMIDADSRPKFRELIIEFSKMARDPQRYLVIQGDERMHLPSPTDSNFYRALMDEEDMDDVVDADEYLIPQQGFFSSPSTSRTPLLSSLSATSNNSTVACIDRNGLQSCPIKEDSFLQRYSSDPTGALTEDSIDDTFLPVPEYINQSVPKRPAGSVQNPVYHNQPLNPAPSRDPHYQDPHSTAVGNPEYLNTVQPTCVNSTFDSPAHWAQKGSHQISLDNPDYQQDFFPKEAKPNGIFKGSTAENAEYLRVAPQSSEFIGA

With `Cc1nc(NC(C)c2ccc(-c3ccccc3CN(C)C)s2)c2cc(N3CCN(Cc4ccccc4)C(=O)C3)ccc2n1` (stereo not drawn) [Example 458, 1-benzyl-4-(4-{[1-(5-{2-[(dimethylamino)methyl]phenyl}thiophen-2-yl)ethyl]amino}-2-methylquinazolin-6-yl)piperazin-2-one], the IC50 was 0.04 µM in test [1] (setting [3]) and greater than 20 µM in test [2] (setting [4]).
For `CC(=O)Nc1ccc2nc(C)nc(NC(C)c3ccc(-c4ccccc4CN(C)C)s3)c2c1` (stereo not drawn) [Example 420, N-(4-{[1-(5-{2-[(dimethylamino)methyl]phenyl}thiophen-2-yl)ethyl]amino}-2-methylquinazolin-6-yl)acetamide], in that order: 0.384 µM and greater than 20 µM.
`COc1cc2nc(C)nc(NC(C)c3ccc(-n4ccc(CCO)n4)o3)c2cc1OC` (stereo not drawn) [Example 226, 2-[1-(5-{1-[(6,7-dimethoxy-2-methylquinazolin-4-yl)amino]ethyl}furan-2-yl)-1H-pyrazol-3-yl]ethanol]: the inhibition at 20 µM in test [1] (high GTP) was 37%. Also, in test [2] (setting [5]), the IC50 was greater than 20 µM.
For `COc1cc2nc(C)nc(NC(C)c3ccc(-c4ccc(F)cc4CNC(=O)c4cc5ccccc5[nH]4)s3)c2cc1OC` (stereo not drawn) [Example 296, N-[2-(5-{1-[(6,7-dimethoxy-2-methylquinazolin-4-yl)amino]ethyl}thiophen-2-yl)-5-fluorobenzyl]-1H-indole-2-carboxamide], in that order: 48% and greater than 20 µM.
With `Cc1nc(NC(C)c2ccc(Br)s2)c2cc(N3CCCC3)ccc2n1` (stereo not drawn) [Example 419, N-[1-(5-bromothiophen-2-yl)ethyl]-2-methyl-6-(pyrrolidin-1-yl)quinazolin-4-amine], the half-inhibitory concentration (IC50) in test [1] (setting [3]) was 3.74 µM; in test [2] (setting [4]) it was greater than 20 µM.
For the compound `COc1cc2nc(C)nc(NC(C)c3ccc(-c4ccc(CNC(=O)OC(C)(C)C)o4)s3)c2cc1OC` (stereo not drawn) [Example 236, tert-butyl {[5-(5-{1-[(6,7-dimethoxy-2-methylquinazolin-4-yl)amino]ethyl}thiophen-2-yl)furan-2-yl]methyl}carbamate], the IC50 in test [1] (high GTP, read-out: Assay 2 (KRAS-Activation by SOS high GTP) activity expressed as IC50) is 3.82 µM; in test [2] (setting [5]), greater than 20 µM.
